Laboratory results taken from patent US10842779B2, “Heterocyclic compounds and their use in preventing or treating bacterial infections” (priority 2015, dated 2020).
Where two headings read alike, the source gives them in different places.

Assays:
Assay in all cases: MIC of compounds alone, broth microdilution
Format in all cases: cell-based
[1] = test system: E. coli; conditions: Escherichia coli
Experimental: (§1) Method 2: MIC of Compounds and Synergy with Ceftazidime Against Bacterial Isolates (Table 2 and 3)
(§2) Compounds of the present invention were assessed against genotyped bacterial strains alone or in combination with the β-lactam ceftazidime. In the assays, MICs of said compounds, or of ceftazidime at fixed concentrations of said compounds were determined by the broth microdilution method according to the Clinical Laboratory Standards Institute (CLSI—M7-A7). Briefly, compounds alone according to the invention were prepared in DMSO and spotted (2 μL each) on sterile polystyrene plates (Corning, 3788). Compounds and ceftazidime dilutions were prepared in DMSO and spotted (1 μL each) on sterile polystyrene plates (Corning, 3788). Log phase bacterial suspensions were adjusted to a final density of 5×10^5 cfu/mL in cation-adjusted Mueller-Hinton broth (Beckton-Dickinson) and added to each well (98 μL). Microplates were incubated for 16-20 h at 35° C. in ambient air. The MIC of the compounds was defined as the lowest concentration of said compounds that prevented bacterial growth as read by visual inspection. The MIC of ceftazidime at each compound concentration was defined as the lowest concentration of ceftazidime that prevented bacterial growth as read by visual inspection.

[2] = test system: M. morganii; conditions: Morganella morganii, MMO 200321, beta-lactamases TEM-1, CTX-M-15 OXA-1
Experimental: as §1, §2

[3] = test system: S. marcescens; conditions: Serratia marcescens, SMA UFR30, beta-lactamases OXA-405
Experimental: as §1, §2

[4] = test system: K. pneumoniae; conditions: Klebsiella pneumoniae
Experimental: as §1, §2

[5] = test system: P. mirabilis; conditions: Proteus mirabilis, PMI UFR82, beta-lactamases CMY-2
Experimental: as §1, §2

[6] = test system: C. murliniae
Experimental: as §1, §2

[7] = test system: E. aerogenes; conditions: Klebsiella aerogenes
Experimental: as §1, §2

CC(C)(O/N=C(\C(=O)N[C@@H]1C(=O)N2C(C(=O)[O-])=C(C[n+]3ccccc3)CS[C@H]12)c1csc(N)n1)C(=O)O [CAZ, ceftazidime, reference compound]
MIC ([1]; ECO UFR41, beta-lactamases TEM-1, CTX-M-15 CMY-2 OXA-1 NDM-4): > 128 µg/mL
MIC ([1]; ECO UFR45, beta-lactamases TEM-1 CMY-4 OXA-1 OXA-48 VIM-1, read-out: MIC): 2 µg/mL
MIC ([1]; ECO UFR52, beta-lactamases TEM-1, SHV-12 IMP-8): > 128 µg/mL
MIC ([1]; ECO UFR61O, beta-lactamases TEM-1 KPC-2): 128 µg/mL
MIC ([1]; ECO UFR62, beta-lactamases TEM-1, CTX-M-9 KPC-2, read-out: MIC): 16 µg/mL
MIC ([1]; ECO UFR74, beta-lactamases SHV-1 DHA-1): 128 µg/mL
MIC [2]: 16 µg/mL
MIC [3]: 16 µg/mL
MIC ([4]; BAA1898, alone, KPN BAA-1898, beta-lactamases TEM-1, SHV-11, SHV-12 KPC-2): 256 µg/mL
MIC ([4]; alone, KPN 6299, beta-lactamases TEM-1, SHV-11 OXA-163): 256 µg/mL
MIC ([4]; alone, KPN 110376, beta-lactamases TEM-1, SHV-1, CTX-M-15 OXA-1 OXA-48): 128 µg/mL
MIC ([4]; alone, KPN 131119, beta-lactamases TEM-1, SHV-11, CTX-M-15 OXA-1 OXA-48): > 128 µg/mL
MIC ([4]; alone, KPN 160143, beta-lactamases TEM-1, SHV-1, CTX-M-15 KPC-2 OXA-1): 128 µg/mL
MIC ([4]; alone, KPN 190128, beta-lactamases TEM-1, SHV-32, CTX-M-15 OXA-1): > 128 µg/mL
MIC ([4]; alone, KPN 190270, beta-lactamases TEM-1, SHV-76, CTX-M-15 OXA-1): > 128 µg/mL
MIC ([4]; alone, KPN 190425, beta-lactamases TEM-1, SHV-1, CTX-M-15 OXA-1): > 128 µg/mL
MIC ([4]; alone, KPN 190551, beta-lactamases TEM-1, SHV-1, CTX-M-15 OXA-1, read-out: MIC): 64 µg/mL
MIC ([4]; alone, KPN 200047, beta-lactamases TEM-1, SHV-32, CTX-M-15 OXA-1): 128 µg/mL
MIC ([4]; alone, KPN 200327, beta-lactamases TEM-1, SHV-1, CTX-M-15 OXA-1, read-out: MIC): 32 µg/mL
MIC ([4]; alone, KPN 260251, beta-lactamases TEM-1, SHV-11, SHV-12, CTX-M-15 KPC-2): > 128 µg/mL
MIC ([4]; alone, KPN 260252, beta-lactamases TEM-1, SHV-11 KPC-3): > 128 µg/mL
MIC ([4]; alone, KPN 260376, beta-lactamases SHV-1, SHV-49 OXA-1): 128 µg/mL
MIC ([4]; alone, KPN 270077, beta-lactamases TEM-1, SHV-1, CTX-M-15): 128 µg/mL
MIC ([4]; alone, KPN 700603, beta-lactamases SHV-18 OXA-2, read-out: MIC): 64 µg/mL
MIC ([4]; alone, KPN 6122012, beta-lactamases SHV-1 NDM-1): > 128 µg/mL
MIC ([4]; alone, KPN ARA, beta-lactamases TEM-1, SHV-11, CTX-M-15 OXA-1 OXA-48): > 128 µg/mL
MIC ([4]; alone, KPN LIB, beta-lactamases SHV-11 OXA-48, read-out: MIC): 0.25 µg/mL
MIC ([4]; alone, KPN UFR22_O, beta-lactamases TEM-1, SHV-1 OXA-48, read-out: MIC): 2 µg/mL
MIC ([4]; alone, KPN UFR24, beta-lactamases TEM-1, SHV-2, SHV-11 OXA-1 OXA-48 OXA-47): > 128 µg/mL
MIC ([4]; alone, KPN UFR25, beta-lactamases TEM-1, SHV-11, CTX-M-15 OXA-162): 128 µg/mL
MIC ([4]; alone, KPN UFR27, beta-lactamases TEM-1, SHV-28, CTX-M-15 OXA-204): > 128 µg/mL
MIC ([4]; alone, KPN UFR28, beta-lactamases TEM-1, SHV-1, CTX-M-15 OXA-1 OXA-232): 128 µg/mL
MIC ([4]; alone, KPN UFR42, beta-lactamases SHV-2, CTX-M-15 OXA-1 OXA-181 NDM-1): > 128 µg/mL
MIC ([4]; alone, KPN UFR43, beta-lactamases SHV-11, CTX-M-15 CMY-2 OXA-1 NDM-1): > 128 µg/mL
MIC ([4]; alone, KPN UFR53, beta-lactamases TEM-1 IMP-1): > 128 µg/mL
MIC ([4]; alone, KPN UFR65, beta-lactamases TEM-1, SHV-11 KPC-2): 128 µg/mL
MIC ([4]; alone, KPN UFR66, beta-lactamases TEM-1, SHV-11, CTX-M-15 KPC-2): > 128 µg/mL
MIC ([4]; alone, KPN UFR68, beta-lactamases TEM-1, SHV-11, CTX-M-15 KPC-3): > 128 µg/mL
MIC ([4]; alone, KPN UFR77, beta-lactamases CMY-2, read-out: MIC): 64 µg/mL
MIC ([4]; alone, KPN UFR79, beta-lactamases DHA-1 OXA-1, read-out: MIC): 32 µg/mL
MIC ([4]; alone, KPN UFR80, beta-lactamases SHV-11 DHA-1 OXA-1, read-out: MIC): 0.5 µg/mL
MIC ([4]; alone, KPN UFR81, beta-lactamases TEM-1, SHV-1 DHA-1 OXA-48): 128 µg/mL
MIC [5]: 4 µg/mL
MIC [6]: > 128 µg/mL
MIC [7]: 128 µg/mL
